Experimental data published in ChEMBL document CHEMBL1201862, “PubChem BioAssay data set” (2004).
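Interpolation was linear, between the two tested concentrations surrounding the appropriate level; five concentrations were tested over 48 hours in 96-well plates. GI50 marks 50% less growth.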 Active and inactive are the calls of the source. Cut-off read from the data, not from the text of the source: active = GI50 up to about 1.1 µM and inactive = higher.

Columns and labels:
Assay in all cases: growth of human tumour cells (NCI), 48 h
A498 = tested on: A498
A549 = tested on: A549
COLO 205 = tested on: COLO 205
HCC 2998 = tested on: HCC 2998
HCT-116 = tested on: HCT-116
HL-60 = tested on: HL-60
HOP-62 = tested on: HOP-62
Hs-578T = tested on: Hs-578T
NCI-H226 = tested on: NCI-H226
OVCAR-4 = tested on: OVCAR-4
OVCAR-8 = tested on: OVCAR-8
RPMI-8226 = tested on: RPMI-8226
SF-295 = tested on: SF-295
SK-MEL-28 = tested on: SK-MEL-28
T47D = tested on: T47D
UACC-257 = tested on: UACC-257
RXF 393 = tested on: RXF 393
K562 = tested on: K562

Row | Structure (SMILES) | GI50 (A498) | GI50 (A549) | GI50 (COLO 205) | GI50 (HCC 2998) | GI50 (HCT-116) | GI50 (HL-60) | GI50 (HOP-62) | GI50 (Hs-578T) | GI50 (NCI-H226) | GI50 (OVCAR-4) | GI50 (OVCAR-8) | GI50 (RPMI-8226) | GI50 (SF-295) | GI50 (SK-MEL-28) | GI50 (T47D) | GI50 (UACC-257) | GI50 (RXF 393) | GI50 (K562)
1 | Fc1ccc(Nc2nc(Cl)c3nc[nH]c3n2)cc1Cl | > 100 µM (inactive) | > 100 µM (inactive) | > 100 µM (inactive) | 32.9 µM (inactive) | > 100 µM (inactive) | > 100 µM (inactive) | 61.8 µM (inactive) | 39.9 µM (inactive) | > 100 µM (inactive) | > 100 µM (inactive) | 24.9 µM (inactive) | > 100 µM (inactive) | > 100 µM (inactive) | > 100 µM (inactive) | 38.5 µM (inactive) | > 100 µM (inactive) | – | –
2 | O=C1C(C(O)(C(F)(F)Cl)C(F)(F)Cl)CCCC1C(O)(C(F)(F)Cl)C(F)(F)Cl (centres undefined) | > 10 µM (inactive) | > 10 µM (inactive) | > 10 µM (inactive) | > 10 µM (inactive) | > 10 µM (inactive) | – | > 10 µM (inactive) | > 10 µM (inactive) | > 10 µM (inactive) | > 10 µM (inactive) | > 10 µM (inactive) | – | > 10 µM (inactive) | > 10 µM (inactive) | > 10 µM (inactive) | > 10 µM (inactive) | > 10 µM (inactive) | –
3 | CCOC(=O)Oc1ccc2c(c1)c(=O)c1c(NCCN(CC)CC)ccc3nnn2c31 | 6.52 µM (inactive) | 0.2 µM (active) | 1.01 µM (active) | 2.94 µM (inactive) | 0.405 µM (active) | – | 1.24 µM (inactive) | 5.11 µM (inactive) | 0.711 µM (active) | 2.55 µM (inactive) | 0.577 µM (active) | 0.908 µM (active) | 3.78 µM (inactive) | 11.7 µM (inactive) | 14.8 µM (inactive) | 7.35 µM (inactive) | 6.08 µM (inactive) | 0.948 µM (active)
4 | CCOC(=O)C1(Cc2ccc3c(c2)CCC3)Cc2cc3c(cc2C1)CCC3 | 37.5 µM (inactive) | 35.9 µM (inactive) | 33.9 µM (inactive) | 22.6 µM (inactive) | 25.5 µM (inactive) | > 100 µM (inactive) | 32.9 µM (inactive) | 34.8 µM (inactive) | 31.6 µM (inactive) | 28 µM (inactive) | 42.5 µM (inactive) | 14.6 µM (inactive) | 25.1 µM (inactive) | 39.4 µM (inactive) | 17.7 µM (inactive) | 23.7 µM (inactive) | – | 15.2 µM (inactive)
5 | O=[N+]([O-])c1cccc(-c2nc(-c3ccccc3)c(-c3ccccc3)[nH]2)c1 | > 100 µM (inactive) | > 100 µM (inactive) | > 100 µM (inactive) | > 100 µM (inactive) | > 100 µM (inactive) | > 100 µM (inactive) | > 100 µM (inactive) | > 100 µM (inactive) | > 100 µM (inactive) | – | > 100 µM (inactive) | > 100 µM (inactive) | > 100 µM (inactive) | > 100 µM (inactive) | > 100 µM (inactive) | > 100 µM (inactive) | > 100 µM (inactive) | > 100 µM (inactive)
6 | CCCCCCCCCCOC1C(C(C)OCCCN(C)C)OC2OC3(CCCCC3)OC21 (centres undefined) | – | 15.4 µM (inactive) | 3.48 µM (inactive) | 13.3 µM (inactive) | 13.4 µM (inactive) | 6.37 µM (inactive) | 16.4 µM (inactive) | 18.1 µM (inactive) | 17.2 µM (inactive) | 13.6 µM (inactive) | 18.8 µM (inactive) | 4.32 µM (inactive) | 17.5 µM (inactive) | 12.2 µM (inactive) | 18.1 µM (inactive) | 20.8 µM (inactive) | 14.9 µM (inactive) | 3.47 µM (inactive)
7 | CCCCCCCCCCCCOCCCCCCCCC/C=C/c1ccc2c(c1)OCCOCCOCCOCCO2 | – | 17.6 µM (inactive) | 18.9 µM (inactive) | 17.9 µM (inactive) | 16 µM (inactive) | 28.8 µM (inactive) | 28 µM (inactive) | 16.4 µM (inactive) | 17.8 µM (inactive) | 19.3 µM (inactive) | 12.7 µM (inactive) | 17.7 µM (inactive) | 16.3 µM (inactive) | 30.7 µM (inactive) | 24.9 µM (inactive) | 27 µM (inactive) | 19.2 µM (inactive) | 31.3 µM (inactive)
8 | COc1ccc(Cc2nc3cc(Cl)ccc3o2)cc1 | – | 35.4 µM (inactive) | 28.4 µM (inactive) | 20.8 µM (inactive) | 36.5 µM (inactive) | 28.4 µM (inactive) | > 100 µM (inactive) | 49.2 µM (inactive) | 21.5 µM (inactive) | 18.8 µM (inactive) | 40.8 µM (inactive) | 21.3 µM (inactive) | 31.3 µM (inactive) | 37.2 µM (inactive) | 21.3 µM (inactive) | 24 µM (inactive) | 22.6 µM (inactive) | 34.4 µM (inactive)
9 | CCCC(=O)N1CCN(c2ccc3c(c2)OC(C)O3)CC1 (centres undefined) | > 100 µM (inactive) | > 100 µM (inactive) | > 100 µM (inactive) | > 100 µM (inactive) | > 100 µM (inactive) | – | > 100 µM (inactive) | > 100 µM (inactive) | > 100 µM (inactive) | > 100 µM (inactive) | > 100 µM (inactive) | – | > 100 µM (inactive) | > 100 µM (inactive) | > 100 µM (inactive) | > 100 µM (inactive) | > 100 µM (inactive) | > 100 µM (inactive)
10 | CC1CN=C(Nc2ccccc2)S1 (centres undefined) | > 100 µM (inactive) | > 100 µM (inactive) | > 100 µM (inactive) | > 100 µM (inactive) | > 100 µM (inactive) | > 100 µM (inactive) | > 100 µM (inactive) | > 100 µM (inactive) | > 100 µM (inactive) | – | > 100 µM (inactive) | > 100 µM (inactive) | > 100 µM (inactive) | > 100 µM (inactive) | > 100 µM (inactive) | > 100 µM (inactive) | > 100 µM (inactive) | > 100 µM (inactive)
11 | CC(=O)N1C(=O)c2cc3ccccc3cc21 | 24.7 µM (inactive) | > 100 µM (inactive) | > 100 µM (inactive) | > 100 µM (inactive) | 61.4 µM (inactive) | > 100 µM (inactive) | 63.5 µM (inactive) | > 100 µM (inactive) | > 100 µM (inactive) | – | > 100 µM (inactive) | > 100 µM (inactive) | – | > 100 µM (inactive) | > 100 µM (inactive) | – | – | > 100 µM (inactive)
12 | Cc1c(C)c2c(c(N)c1C#N)C(=O)N(NC(=S)Nc1ccccc1)C2=O | – | > 100 µM (inactive) | 79.4 µM (inactive) | > 100 µM (inactive) | 52.6 µM (inactive) | 86.9 µM (inactive) | – | 42.1 µM (inactive) | 42.8 µM (inactive) | > 100 µM (inactive) | 45 µM (inactive) | 43.3 µM (inactive) | 60.8 µM (inactive) | > 100 µM (inactive) | > 100 µM (inactive) | > 100 µM (inactive) | 46 µM (inactive) | > 100 µM (inactive)
13 | O[C@]12C=C(c3nccc4c3[nH]c3ccccc34)[C@@H]3CCN(CCCC/C=C\CC1)C[C@@]31CC3/C=C\CCCCN3[C@H]12 (some centres undefined) | 0.364 µM (active) | 0.36 µM (active) | 0.344 µM (active) | 0.284 µM (active) | 0.243 µM (active) | 0.248 µM (active) | 0.223 µM (active) | 0.411 µM (active) | 0.582 µM (active) | 0.454 µM (active) | 0.331 µM (active) | 0.31 µM (active) | 0.513 µM (active) | 0.615 µM (active) | 0.34 µM (active) | 0.652 µM (active) | – | 0.367 µM (active)
14 | O=S(=O)(NC1OCCCC1I)c1ccccc1 (centres undefined) | > 100 µM (inactive) | > 100 µM (inactive) | > 100 µM (inactive) | > 100 µM (inactive) | > 100 µM (inactive) | – | > 100 µM (inactive) | > 100 µM (inactive) | > 100 µM (inactive) | 89.7 µM (inactive) | > 100 µM (inactive) | 43.2 µM (inactive) | > 100 µM (inactive) | > 100 µM (inactive) | > 100 µM (inactive) | > 100 µM (inactive) | > 100 µM (inactive) | > 100 µM (inactive)
15 | NC(=S)Nc1nc(=S)[nH]c2c1SC1=N/C(=C\c3ccco3)C(=O)N12 | > 100 µM (inactive) | > 100 µM (inactive) | > 100 µM (inactive) | – | > 96.2 µM (inactive) | 19.1 µM (inactive) | > 100 µM (inactive) | > 100 µM (inactive) | > 47.8 µM (inactive) | 61.8 µM (inactive) | > 100 µM (inactive) | 29.3 µM (inactive) | > 100 µM (inactive) | > 100 µM (inactive) | 61.8 µM (inactive) | > 100 µM (inactive) | > 100 µM (inactive) | 28.4 µM (inactive)
16 | Nc1nc(SCC(=O)O)nc(O)c1N | > 100 µM (inactive) | > 100 µM (inactive) | > 100 µM (inactive) | – | 35.6 µM (inactive) | 56.1 µM (inactive) | > 100 µM (inactive) | > 100 µM (inactive) | > 100 µM (inactive) | 50.9 µM (inactive) | 78.5 µM (inactive) | 32.7 µM (inactive) | > 100 µM (inactive) | > 100 µM (inactive) | > 100 µM (inactive) | 70.5 µM (inactive) | > 100 µM (inactive) | 13.6 µM (inactive)
17 | Cc1ccc(S(=O)(=O)N(CCNC(=O)c2cccc(O)c2O)c2cc3c4c(c2)Oc2cccc5c2C4(C)c2c(cccc2O3)O5)cc1 | 58.6 µM (inactive) | 20.9 µM (inactive) | – | > 100 µM (inactive) | 28.8 µM (inactive) | – | 55.6 µM (inactive) | > 100 µM (inactive) | 7.74 µM (inactive) | > 100 µM (inactive) | > 100 µM (inactive) | > 100 µM (inactive) | > 100 µM (inactive) | 53.6 µM (inactive) | 6.17 µM (inactive) | > 100 µM (inactive) | – | 41.1 µM (inactive)
